SMILES strings stand for the structures.

The nature of data set [1]: Pharmacokinetics of mazindol after oral administration. The note with it: immediate release formulation.
A further data set addresses T1, M1(h) (Homo sapiens, UniProt P11229).
T1 construct: Eurofins CEREP
T1 sequence (P11229 1-460): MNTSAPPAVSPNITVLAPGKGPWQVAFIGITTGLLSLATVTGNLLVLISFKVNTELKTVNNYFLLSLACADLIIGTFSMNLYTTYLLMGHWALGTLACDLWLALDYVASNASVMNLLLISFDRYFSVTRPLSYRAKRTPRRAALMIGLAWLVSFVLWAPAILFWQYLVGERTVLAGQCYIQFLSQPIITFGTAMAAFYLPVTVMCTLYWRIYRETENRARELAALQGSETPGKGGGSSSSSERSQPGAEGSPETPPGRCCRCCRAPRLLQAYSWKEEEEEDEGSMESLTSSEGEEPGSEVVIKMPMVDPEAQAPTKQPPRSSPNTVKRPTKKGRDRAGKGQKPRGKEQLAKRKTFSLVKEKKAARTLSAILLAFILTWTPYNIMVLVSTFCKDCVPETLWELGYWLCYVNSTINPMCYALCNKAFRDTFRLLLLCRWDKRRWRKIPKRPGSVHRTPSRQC
Put plainly: Radioligand binding, M1 (Eurofins CEREP). The note with it: 1.0 × 10^−05 M; antagonist radioligand; read-out: percent inhibition of the binding of a radioactively labeled ligand. The text has this: Table A discloses mazindol and Met tested at […] and the compound binding calculated as a percent inhibition of the binding of a radioactively labeled ligand specific for each target (Eurofins CEREP, France).
An inhibition or stimulation of more than 50% is considered a significant effect of the test compounds. Fifty percent is a common cut-off for further investigation (i.e. determination of IC50 or EC50 values from concentration-response curves). Tables B and C display the binding profiles for Mazindol and Met.
The results are expressed as a percent of control specific binding obtained in the presence of the test compounds:
[formula] and as a percent inhibition of control specific binding obtained in the presence of the test compounds: […]

With `OC1(c2ccc(Cl)cc2)c2ccccc2C2=NCCN21` (centres unmarked) [Mazindol, 5-(4-chlorophenyl)-2,5-dihydro-3 H-imadazo[2,1-a]isoindol-5-ol], the “time to steady-state concentrations” value in data set [1] lay within 30 to 55 h. Also, the inhibition (commonly the percentage by which the read-out fell short of the control) at 10 µM on M1(h) came to 52.1%.

The record behind these values is patent publication US11596622B2, “Mazindol treatment for heroin dependence and substance use disorder” (NLS Pharmaceutics AG, priority 2017, dated 2023).
